Where “and” joins values, the source holds several entries; their conditions need not be identical. Equal values may be shown once. Entries after “also recorded” stand apart in the source; their conditions may differ.
Legend:
[1] = Blood-brain barrier penetration; assay type: in vivo, mouse
in vivo = conditions: C57BL/6, mouse
Protocol: (§1) Any clinical abnormalities including but not limited to ruffled fur, unstable gait, severe lethargy, and mortality was observed after dosing. The post-dose washout period was maintained for 48 h for both PO, IV, and SC route of administration.

C57BL/6 mice = experiment: in vivo; conditions: mouse
Protocol: as §1

B6SJL G93A mice = experiment: Survival study, hybrid B6SJL G93A mice, S-XL6 SC 20 then 50 mg/kg once a day Monday to Friday; assay type: in vivo, mouse
From the text: (§2) Two fALS lines were used to assess survival in genetic backgrounds with different disease severity. […] Dose and dose regimen were estimated from the blood PK/PD profile and BBB penetration described above. A subcutaneous (SC) route of administration was chosen because in our hands it results in more precise delivery. […] In both studies, mice were gender and littermate matched and non ALS-related deaths were excluded. We are currently developing the methods necessary for quantifying copy number and cannot rule out reduced SOD1 expression as having contributed to the survival benefit in treated B6 G93A mice.
The first line was derived by crossing (over >10 generations) congenic fALS “B6 G93A mice” (B6.Cg-Tg(SOD1*G93A)1Gur/J, Stock No. 004435, The Jackson Laboratory, Bar Harbor, Maine, USA) with “YFP-16 mice” [50] (B6.Cg-Tg(Thy1-YFP)16Jrs/J, Stock No. 003709, The Jackson Laboratory, Bar Harbor, Maine, USA). This line maintains the C57BL/6J genetic background and expresses YFP in motor and sensory neurons to enable cellular-level molecular profiling in future studies. The second line is the standard “Hybrid B6SJL G93A mice” (B6SJL-Tg(SOD1*G93A)1Gur/J Stock No. 002726, The Jackson Laboratory, Bar Harbor, Maine, USA). Methods for survival studies have been described and followed the conventions for optimal trial design with fALS mice. Mice were tested for difference in: (1) disease onset (at least a 20% decrease in grip strength and open-field motor performance, which we expect to correlate with change in weight); (2) disease end-stage (disease score, e.g., loss of righting reflex); and (3) weight. The hybrid line was additionally tested for differences in forelimb and hindlimb grip strength.

SOD1 = biological target: T1, SOD1 (Homo sapiens, UniProt P00441, G94A); experiment: Target engagement in blood during the survival studies; assay type: in vivo, mouse
T1 construct: Extraction of SOD1^G93A from red blood cell (RBC) protein was performed as previously described; tissue Jackson Laboratory 002726; host or cells: red blood cells of transgenic B6SJL-Tg(SOD1*G93A)1Gur/J mice
From the text: as §2
The data underlying this figure can be found in S1 Data. fALS, familial amyotrophic lateral sclerosis.

T1 sequence (P00441 2-154 G94A limits assumed): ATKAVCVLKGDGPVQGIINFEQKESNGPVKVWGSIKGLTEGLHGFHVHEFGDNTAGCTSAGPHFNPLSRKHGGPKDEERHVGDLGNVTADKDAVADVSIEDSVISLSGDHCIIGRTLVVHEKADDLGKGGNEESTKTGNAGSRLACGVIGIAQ

For `[O-][S+]1CCCCS1` (centres unmarked) [S-XL6, 1,2-dithiane-1-oxide], the “blood–brain barrier crossing” value ([1]; fALS mouse model) was “crosses the blood–brain barrier”, the log BB at 1 h ([1]; transgenic SOD1^G93A, mouse, brain/blood, subcutaneous, 30 mg/kg) was 0.02 and the Kp at 1 h ([1]; transgenic SOD1^G93A, mouse, brain/blood, subcutaneous, 30 mg/kg, read-out: % BBB penetration) was 0.0002. The LD50 at 48 h (in vivo; iv) was 75 mg/kg, the LD50 at 48 h (in vivo; po) was 1000 mg/kg and the LD50 at 48 h (in vivo; sc) was 275 mg/kg. For the same compound, the “mortality in up-down study” value (C57BL/6 mice; iv, 55 mg/kg) was “One mouse died”, the “mortality in up-down study” value (C57BL/6 mice; iv, 60 mg/kg) was “another mouse died” and the “mortality in up-down study” value (C57BL/6 mice; sc, 60 mg/kg) was “one mouse died”. The survival benefit (B6SJL G93A mice; 50 mg/kg SC once a day, Monday to Friday, from day 70) was “no survival benefit; also recorded: No survival improvement”, the “Age (wks)” value (B6SJL G93A mice; individual mice, Tx D (dosed), age at end-stage, found dead or sacrifice) was 17.7143 wks and 17.5714 wks and 17.8571 wks and 15.5714 wks and 18.7143 wks and 17.4286 wks and 16.1429 wks and 18 wks and 15.8571 wks and 17.1429 wks and the “Age” value (B6SJL G93A mice; individual mice, Tx D (dosed), age at end-stage, found dead or sacrifice (131-day mice sac'd for tissue)) was 124 days and 123 days and 125 days and 109 days and 131 days and 122 days and 113 days and 126 days and 111 days and 120 days. The “target engagement after initial dose” value (SOD1; B6SJL G93A mice, initial SC dose of 20 mg/kg) was “lower target engagement than expected” and the “SOD1 engaged (on average) over time” value (SOD1; survival studies, 50 mg/kg SC) was “approximately 40%”.

From PMC10826971, “Evaluating protein cross-linking as a therapeutic strategy to stabilize SOD1 variants in a mouse model of familial ALS” (PLOS Biology, 2024)
